Data as given in patent US20240139125A1 (INDUSTRIAL COOPERATION FOUNDATION JEONBUK NATIONAL …, priority 2020, published 2024).

Legend:
[1] = test system: BI-1 (TMBIM6); test: HT1080 xenograft with SAMiRNA knockdown of BI-1; assay type: in vivo, nude mice; conditions: 1 mg/kg, intravenously in the tail every 3 days
Experimental: FIGS. 13A-13D show the volume, weight, and size of tumors derived from HT1080 in TMBIM6-target SAMiRNA, control SAMiRNA or nude mice injected with saline solution (n=5 mice per group) through the tail vein. Data were expressed as mean±SD. *p<0.05, ***p<0.001, ****p<0.0001, Bonferroni's post hoc test (B) after binary ANOVA, member ANOVA followed by Tukey's post hoc test.
In culture, exponentially growing BI-1 (TMBIM6) knockout and WT HT1080 cells were treated with trypsin and quantified through trypan blue staining differentiation, and 3-5×10^6 cells were resuspended in 0.1 ml PBS. Cells were injected subcutaneously into the flanks of each mouse. 5×10^6 cells were injected into 0.1 ml PBS for SMAiRNA or BIA treatment. When the weight of the tumor reaches about 100 mg (7-10 days after inoculation), mice are randomly assigned 1 mg/kg BI-1 SAMiRNA diluted in saline, 1 mg/kg BIA diluted in DMSO (final concentration: 10% v/v) or vehicle (saline solution or DMSO, 10% v/v) was divided into groups.
SAMiRNA was administered intravenously in the tail every 3 days and BIA was injected intraperitoneally 5 days per week over 3 weeks. […].
After 25-28 days, the mice were euthanized, solid tumors were incised, and tumor volumes were recorded. Tumor size was measured with a caliper. The tumor volume (mm^3) was calculated by the formula [(shortest diameter)2×longest diameter]/2.

[2] = test system: binding between mTORC2 and ribosomes; test: PLA of mTORC2-ribosome binding with Ca2+ chelators; assay type: cell-based; conditions: HT1080 cells, 10 μM
Experimental: FIG. 46A is the PLA result between the indicated proteins (fine and bright spots) in HT1080 cells treated with BAPTA-AM (10 μM), BAPTA (10 μM), and EGTA-AM (10 μM). The scale bar represents 15 μm. The graph on the right quantifies the fine, bright points (n=3, independent experiment). Data were expressed as mean±SD. **p<0.01; ****p<0.0001, Tukey's post hoc test after member ANOVA.
The role of Ca^2+ in mTORC2 activation was investigated. Ca^2+ depletion by BAPTA acetoxymethyl ester (BAPTA-AM) rather than BAPTA or slow Ca^2+ chelator (ie, EGTA-AM) blocked the binding between mTORC2 and ribosomes as shown in PLA analysis results. (See FIG. 46A).

Compound: SAMiRNA: self-assembled micelle inhibitory RNA against BI-1, sequence 5′-AAGGCACUGCAUUGAUCUUU-3′, obtained from Bioneer (siRNA; micelle-forming conjugate, chemistry not fully specified)
- tumor formation and Ki67 expression [1]: reduced

Compound: CC(=O)OCOC(=O)CN(CC(=O)OCOC(C)=O)c1ccccc1OCCOc1ccccc1N(CC(=O)OCOC(C)=O)CC(=O)OCOC(C)=O [BAPTA-AM, BAPTA acetoxymethyl ester]
- binding between mTORC2 and ribosomes [2]: blocked
